The values below come from patent US7655629B2, “Peptides and their use for the treatment of HIV infections” (priority 2002, dated 2010).

pIC50: −log10 of the molar value. Non-standard residues stand in square brackets, D forms with d. Residues, ends and D or L forms follow the SMILES beside them. Phe(4-F) = N[C@@H](Cc1ccc(F)cc1)C(=O)O; 1Nal = N[C@@H](Cc1cccc2ccccc12)C(=O)O; 4Pal = N[C@@H](Cc1ccncc1)C(=O)O; Tic = O=C(O)[C@@H]1Cc2ccccc2CN1; Cha = N[C@@H](CC1CCCCC1)C(=O)O

As a reminder, the pIC50 is the IC50 on a negative log10 scale, so that one unit is a factor of ten.

In one assay the test system is HIV-1 NL4-3 DTV. As to conditions: read-out: IC50 DTV, P4-CCR5 cells, peptide 2 h before infection, readout three days after infection. The procedure, abridged:
(§1)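 P4-CCR5 cells (CD4, CCR5, CXCR4, HIV-1 promoter-driven β-galactosidase) pretreated 2 h with peptide, then infected with virus containing 1 ng p24 antigen and incubated overnight. Cells washed and cultured without peptide; three days post-infection infectivity read by chemiluminescent β-galactosidase assay, in quintuplicate.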

For another assay, the system named is X4-tropic HIV-1 NL4-3. To be noted: read-out: IC50 NL4-3; P4-CCR5 cells, HIV-1 NL4-3, peptide 2 h before infection, readout three days after infection. A digest of the protocol:
as §1

For the compound `CC[C@H](C)[C@H](NC(=O)[C@H](C)NC(=O)[C@H](CCC(=O)O)NC(=O)[C@@H](N)CC(C)C)C(=O)N1CCC[C@H]1C(=O)N[C@@H](CCSC)C(=O)N[C@@H](CO)C(=O)N[C@H](C(=O)N1CCC[C@H]1C(=O)N1CCC[C@@H]1C(=O)N[C@@H](CCC(=O)O)C(=O)N[C@H](C(=O)N[C@@H](Cc1ccccc1)C(=O)N[C@@H](Cc1ccccc1)C(=O)NCC(=O)N[C@@H](CCCCN)C(=O)N1CCC[C@H]1C(=O)N[C@@H](Cc1ccccc1)C(=O)N[C@H](C(=O)N[C@@H](Cc1ccccc1)C(=O)O)C(C)C)C(C)C)[C@@H](C)CC` [VIR-192, LEAIPMSIPpEVFFGKPFVF] (H-LEAIPMSIP[dP]EVFFGKPFVF-OH), the pIC50 in the assay on HIV-1 NL4-3 DTV was 5.92; with X4-tropic HIV-1 NL4-3, 5.81.

As for `CC[C@H](C)[C@H](NC(=O)[C@H](C)NC(=O)[C@H](CCC(=O)O)NC(=O)[C@@H](N)CC(C)C)C(=O)N1CCC[C@H]1C(=O)N[C@@H](CCSC)C(=O)N[C@@H](CO)C(=O)N[C@H](C(=O)N1CCC[C@H]1C(=O)N1CCC[C@@H]1C(=O)N[C@@H](CCC(=O)O)C(=O)N[C@@H](Cc1ccccc1)C(=O)N[C@@H](C)C(=O)N[C@@H](Cc1ccccc1)C(=O)N[C@@H](CC(N)=O)C(=O)N[C@@H](CCCCN)C(=O)N1CCC[C@H]1C(=O)N[C@@H](Cc1ccccc1)C(=O)N[C@H](C(=O)N[C@@H](Cc1ccccc1)C(=O)O)C(C)C)[C@@H](C)CC` [VIR-193, LEAIPMSIPpEFAFNKPFVF] (H-LEAIPMSIP[dP]EFAFNKPFVF-OH), the pIC50 in the assay on HIV-1 NL4-3 DTV was 5.86; in the assay on X4-tropic HIV-1 NL4-3, 5.76.

Consider `CC[C@H](C)[C@H](NC(=O)[C@H](C)NC(=O)[C@H](CCC(=O)O)NC(=O)[C@@H](N)CC(C)C)C(=O)N1CCC[C@H]1C(=O)N[C@@H](CCSC)C(=O)N[C@@H](CO)C(=O)N[C@H](C(=O)N1CCC[C@H]1C(=O)N1CCC[C@@H]1C(=O)N[C@@H](CCC(=O)O)C(=O)N[C@H](C(=O)N[C@@H](Cc1ccccc1)C(=O)N[C@@H](Cc1ccccc1)C(=O)N[C@@H](CC(N)=O)C(=O)N[C@@H](CCCCN)C(=O)N1CCC[C@H]1C(=O)N[C@@H](Cc1ccccc1)C(=O)N[C@H](C(=O)N[C@@H](Cc1ccccc1)C(=O)O)C(C)C)C(C)C)[C@@H](C)CC` [VIR-197, LEAIPMSIPpEVFFNKPFVF] (H-LEAIPMSIP[dP]EVFFNKPFVF-OH), for which the negative logarithm of the IC50 (pIC50) was 5.84 with HIV-1 NL4-3 DTV and 5.90 in the assay with X4-tropic HIV-1 NL4-3.

Regarding `CC[C@H](C)[C@H](NC(=O)[C@H](C)NC(=O)[C@H](CCC(=O)O)NC(=O)[C@@H](N)CC(C)C)C(=O)N1CCC[C@H]1C(=O)N[C@@H](CCSC)C(=O)N[C@@H](CO)C(=O)N[C@H](C(=O)N1CCC[C@H]1C(=O)N1CCC[C@@H]1C(=O)N[C@@H](CCC(=O)O)C(=O)N[C@@H](Cc1ccccc1)C(=O)N[C@@H](CC(C)C)C(=O)N[C@@H](Cc1ccccc1)C(=O)N[C@@H](CC(N)=O)C(=O)N[C@@H](CCCCN)C(=O)N1CCC[C@H]1C(=O)N[C@@H](Cc1ccccc1)C(=O)N[C@H](C(=O)N[C@@H](Cc1ccccc1)C(=O)O)C(C)C)[C@@H](C)CC` [VIR-199, LEAIPMSIPpEFLFNKPFVF] (H-LEAIPMSIP[dP]EFLFNKPFVF-OH), the pIC50 in the assay on HIV-1 NL4-3 DTV is 5.78; with X4-tropic HIV-1 NL4-3 it was 5.67.

For the compound `CC[C@H](C)[C@H](NC(=O)[C@@H]1CCCN1C(=O)[C@@H](NC(=O)[C@H](C)NC(=O)[C@H](CCC(=O)O)NC(=O)[C@@H](N)CC(C)C)[C@@H](C)CC)C(=O)N[C@@H](CO)C(=O)N[C@H](C(=O)N1CCC[C@H]1C(=O)N1CCC[C@@H]1C(=O)N[C@@H](CCC(=O)O)C(=O)N[C@H](C(=O)N[C@@H](C)C(=O)N[C@@H](Cc1ccccc1)C(=O)N[C@@H](CC(N)=O)C(=O)N[C@@H](CCCCN)C(=O)N1CCC[C@H]1C(=O)N[C@@H](Cc1ccccc1)C(=O)N[C@H](C(=O)N[C@@H](Cc1ccccc1)C(=O)O)C(C)C)C(C)C)[C@@H](C)CC` [VIR-229, LEAIPISIPpEVAFNKPFVF] (H-LEAIPISIP[dP]EVAFNKPFVF-OH), the pIC50 with HIV-1 NL4-3 DTV was 5.65; in the assay with X4-tropic HIV-1 NL4-3, 5.89.

As for `CC[C@H](C)[C@H](NC(=O)[C@H](CC(=O)O)NC(=O)[C@H](CCC(=O)O)NC(=O)[C@@H](N)CC(C)C)C(=O)N1CCC[C@H]1C(=O)N[C@@H](CCSC)C(=O)N[C@@H](CO)C(=O)N[C@H](C(=O)N1CCC[C@H]1C(=O)N1CCC[C@@H]1C(=O)N[C@@H](CCC(=O)O)C(=O)N[C@H](C(=O)N[C@@H](C)C(=O)N[C@@H](Cc1ccccc1)C(=O)N[C@@H](CC(N)=O)C(=O)N[C@@H](CCCCN)C(=O)N1CCC[C@H]1C(=O)N[C@@H](Cc1ccccc1)C(=O)N[C@H](C(=O)N[C@@H](Cc1ccccc1)C(=O)O)C(C)C)C(C)C)[C@@H](C)CC` [VIR-252, LEDIPMSIPpEVAFNKPFVF] (H-LEDIPMSIP[dP]EVAFNKPFVF-OH), the pIC50 in the assay on HIV-1 NL4-3 DTV is 5.73; with X4-tropic HIV-1 NL4-3, 5.76.

As for `CC[C@H](C)[C@H](NC(=O)[C@H](CCCCN)NC(=O)[C@H](CCC(=O)O)NC(=O)[C@@H](N)CC(C)C)C(=O)N1CCC[C@H]1C(=O)N[C@@H](CCSC)C(=O)N[C@@H](CO)C(=O)N[C@H](C(=O)N1CCC[C@H]1C(=O)N1CCC[C@@H]1C(=O)N[C@@H](CCC(=O)O)C(=O)N[C@H](C(=O)N[C@@H](C)C(=O)N[C@@H](Cc1ccccc1)C(=O)N[C@@H](CC(N)=O)C(=O)N[C@@H](CCCCN)C(=O)N1CCC[C@H]1C(=O)N[C@@H](Cc1ccccc1)C(=O)N[C@H](C(=O)N[C@@H](Cc1ccccc1)C(=O)O)C(C)C)C(C)C)[C@@H](C)CC` [VIR-255, LEKIPMSIPpEVAFNKPFVF] (H-LEKIPMSIP[dP]EVAFNKPFVF-OH), the pIC50 was 5.91 in the assay on HIV-1 NL4-3 DTV and 6.19 in the assay with X4-tropic HIV-1 NL4-3.

Regarding `CC[C@H](C)[C@H](NC(=O)[C@H](C)NC(=O)[C@H](CCC(=O)O)NC(=O)[C@@H](N)CC(C)C)C(=O)N1CCC[C@H]1C(=O)N[C@@H](CCSC)C(=O)N[C@@H](CO)C(=O)N[C@H](C(=O)N1CCC[C@H]1C(=O)N1CCC[C@@H]1C(=O)N[C@@H](CCC(=O)O)C(=O)N[C@H](C(=O)N[C@@H](CC1CCCCC1)C(=O)N[C@@H](Cc1ccccc1)C(=O)N[C@@H](CC(N)=O)C(=O)N[C@@H](CCCCN)C(=O)N1CCC[C@H]1C(=O)N[C@@H](Cc1ccccc1)C(=O)N[C@H](C(=O)N[C@@H](Cc1ccccc1)C(=O)O)C(C)C)C(C)C)[C@@H](C)CC` [VIR-257, LEAIPMSIPpEV(cyclohexylalanine)FNKPFVF] (H-LEAIPMSIP[dP]EV[Cha]FNKPFVF-OH), the pIC50 in the assay on HIV-1 NL4-3 DTV is 6.18; with X4-tropic HIV-1 NL4-3, 6.07.

Regarding `CC[C@H](C)[C@H](NC(=O)[C@H](C)NC(=O)[C@H](CCC(=O)O)NC(=O)[C@@H](N)CC(C)C)C(=O)N1CCC[C@H]1C(=O)N[C@@H](CCSC)C(=O)N[C@@H](CO)C(=O)N[C@H](C(=O)N1CCC[C@H]1C(=O)N1CCC[C@@H]1C(=O)N[C@@H](CCC(=O)O)C(=O)N[C@@H](Cc1cccc2ccccc12)C(=O)N[C@@H](C)C(=O)N[C@@H](Cc1ccccc1)C(=O)N[C@@H](CC(N)=O)C(=O)N[C@@H](CCCCN)C(=O)N1CCC[C@H]1C(=O)N[C@@H](Cc1ccccc1)C(=O)N[C@H](C(=O)N[C@@H](Cc1ccccc1)C(=O)O)C(C)C)[C@@H](C)CC` [VIR-258, LEAIPMSIPpE(1-naphthylalanine)AFNKPFVF] (H-LEAIPMSIP[dP]E[1Nal]AFNKPFVF-OH), the pIC50 with HIV-1 NL4-3 DTV was 6.21; in the assay on X4-tropic HIV-1 NL4-3, 6.19.

With `CC[C@H](C)[C@H](NC(=O)[C@H](C)NC(=O)[C@H](CCC(=O)O)NC(=O)[C@@H](N)CC(C)C)C(=O)N1CCC[C@H]1C(=O)N[C@@H](CCSC)C(=O)N[C@@H](CO)C(=O)N[C@H](C(=O)N1CCC[C@H]1C(=O)N1CCC[C@@H]1C(=O)N[C@@H](CCC(=O)O)C(=O)N[C@@H](Cc1ccc(F)cc1)C(=O)N[C@@H](C)C(=O)N[C@@H](Cc1ccccc1)C(=O)N[C@@H](CC(N)=O)C(=O)N[C@@H](CCCCN)C(=O)N1CCC[C@H]1C(=O)N[C@@H](Cc1ccccc1)C(=O)N[C@H](C(=O)N[C@@H](Cc1ccccc1)C(=O)O)C(C)C)[C@@H](C)CC` [VIR-259, LEAIPMSIPpE(p-fluorophenylalanine)AFNKPFVF] (H-LEAIPMSIP[dP]E[Phe(4-F)]AFNKPFVF-OH), the pIC50 is 5.99 in the assay on HIV-1 NL4-3 DTV and 6.07 with X4-tropic HIV-1 NL4-3.

`CC[C@H](C)[C@H](NC(=O)[C@H](C)NC(=O)[C@H](CCC(=O)O)NC(=O)[C@@H](N)CC(C)C)C(=O)N1CCC[C@H]1C(=O)N[C@@H](CCSC)C(=O)N[C@@H](CO)C(=O)N[C@H](C(=O)N1CCC[C@H]1C(=O)N1CCC[C@@H]1C(=O)N[C@@H](CCC(=O)O)C(=O)N[C@H](C(=O)N[C@@H](Cc1ccncc1)C(=O)N[C@@H](Cc1ccccc1)C(=O)N[C@@H](CC(N)=O)C(=O)N[C@@H](CCCCN)C(=O)N1CCC[C@H]1C(=O)N[C@@H](Cc1ccccc1)C(=O)N[C@H](C(=O)N[C@@H](Cc1ccccc1)C(=O)O)C(C)C)C(C)C)[C@@H](C)CC` [VIR-260, LEAIPMSIPpEV(4-pyridylalanine)FNKPFVF] (H-LEAIPMSIP[dP]EV[4Pal]FNKPFVF-OH): the negative logarithm of the IC50 (pIC50) is 5.62 with HIV-1 NL4-3 DTV and 5.67 in the assay on X4-tropic HIV-1 NL4-3.

Take `CC[C@H](C)[C@H](NC(=O)[C@H](C)NC(=O)[C@H](CCC(=O)O)NC(=O)[C@@H](N)CC(C)C)C(=O)N1CCC[C@H]1C(=O)N[C@@H](CCSC)C(=O)N[C@@H](CO)C(=O)N[C@H](C(=O)N1CCC[C@H]1C(=O)N1CCC[C@@H]1C(=O)N[C@@H](CCC(=O)O)C(=O)N[C@H](C(=O)N1Cc2ccccc2C[C@H]1C(=O)N[C@@H](Cc1ccccc1)C(=O)N[C@@H](CC(N)=O)C(=O)N[C@@H](CCCCN)C(=O)N1CCC[C@H]1C(=O)N[C@@H](Cc1ccccc1)C(=O)N[C@H](C(=O)N[C@@H](Cc1ccccc1)C(=O)O)C(C)C)C(C)C)[C@@H](C)CC` [VIR-263, LEAIPMSIPpEV(L-Tic)FNKPFVF] (H-LEAIPMSIP[dP]EV[Tic]FNKPFVF-OH): the pIC50 in the assay on HIV-1 NL4-3 DTV was 6.48; with X4-tropic HIV-1 NL4-3, 6.11.
